Results from ChEMBL document CHEMBL1201862, “PubChem BioAssay data set” (2004).
Values belong to the compound of their own block, whether it stands above or below them. Activity calls are given as the source filed them.

Experiments:
BJ [1] = experiment: cells; type: functional, cell-based; settings: Homo sapiens
[2] = ADP-Glo luciferase interference without Dyrk1A, dose response, artefact control for Dyrk1A inhibitor project, biochemical, luminescence, cherry-pick, set 02 (AID 588348)
[3] = biological target: T1, Microphthalmia-associated transcription factor (Homo sapiens, UniProt O75030); experiment: TRPM1 promoter luciferase signal decrease, dose response, MITF inhibitor project, cell-based, SK-MEL-5, cherry-picked, set 3 (AID 493073); type: functional
T1 sequence (O75030 whole entry): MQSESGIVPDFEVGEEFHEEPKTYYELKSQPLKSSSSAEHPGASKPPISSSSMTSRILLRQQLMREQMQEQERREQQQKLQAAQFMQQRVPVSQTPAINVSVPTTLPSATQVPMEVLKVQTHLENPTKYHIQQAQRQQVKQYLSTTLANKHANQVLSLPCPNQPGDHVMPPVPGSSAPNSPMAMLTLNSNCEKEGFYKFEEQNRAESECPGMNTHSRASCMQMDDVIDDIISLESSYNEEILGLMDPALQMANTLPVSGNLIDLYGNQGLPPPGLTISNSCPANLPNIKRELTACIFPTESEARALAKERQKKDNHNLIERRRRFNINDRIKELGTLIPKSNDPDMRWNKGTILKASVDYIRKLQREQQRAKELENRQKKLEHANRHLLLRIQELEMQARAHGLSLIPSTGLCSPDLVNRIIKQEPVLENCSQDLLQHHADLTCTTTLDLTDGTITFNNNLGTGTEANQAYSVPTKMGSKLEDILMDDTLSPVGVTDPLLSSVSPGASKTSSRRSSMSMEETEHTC

[4] = MC4R antagonists, dose response, counter-screen for LGR2 antagonist project, cell-based, plate reader, cherry pick (AID 743444); type: functional;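 further: transfected HEK 293 cells stimulated with alpha-MSH peptide; potency of inhibitors of the alpha-MSH evoked signal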
[5] = cytotoxicity toward DRD oncogenic fibroblasts, dose response, cell-based, non-viral oncogenic, luminescence (AID 1934); type: functional; settings: Homo sapiens
[6] = Luminescence Cell-Based Dose Confirmation HTS to Identify Inhibitors of Platelet Dense Granule Release. [Related pubchem assays: 1663 (Primary HTS), 1678 (Summary of Project)]; type: functional
BJ [7] = experiment: cytotoxicity toward BJ-TERT fibroblasts, dose response, cell-based, RAS-independent, luminescence (AID 1933); type: functional; settings: Homo sapiens
[8] = inhibition of ADP-Glo detection reagents, dose response, artefact control for CDK5 inhibitor project, biochemical, luminescence, cherry-picked samples, set 2 (AID 504546); type: functional
[9] = biological target: Dual specificity tyrosine-phosphorylation-regulated kinase 1A (Rattus norvegicus, UniProt Q63470); type: biochemical, Homo sapiens
[10] = HEK293 cell cytotoxicity, dose response, cytotoxicity control, plate reader, cherry-picked samples (AID 743446); type: functional, cell-based
BJ [11] = experiment: cytotoxicity toward BJ-TERT-LT-ST fibroblasts, dose response, cell-based, RAS-independent, luminescence (AID 1935); type: functional; settings: Homo sapiens;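 further: BJ fibroblasts immortalized with TERT plus LT and ST oncogenes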
[12] = biological target: Luciferin 4-monooxygenase (Photinus pyralis, UniProt P08659); experiment: firefly luciferase enzyme inhibitors, dose response, biochemical, luminescence (AID 1891)
[13] = LGR2 antagonists, dose response, cell-based, HEK293, CRE-luciferase reporter, cherry pick, set 2 (AID 743343); type: functional;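 further: transfected cells were stimulated with diluted bursicon conditioned medium after compound addition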
[14] = A549 cell cytotoxicity, dose response, cytotoxicity control, plate reader, cherry-pick, antagonist series (AID 743412); type: functional, cell-based
[15] = HepG2 cell cytotoxicity, dose response, cytotoxicity control, plate reader, cherry-pick, antagonist series (AID 743416); type: functional, cell-based
Cytochrome P450 2D6 = Cytochrome P450 2D6 (Homo sapiens, UniProt P10635);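 further: CYP2D6 member of a cytochrome P450 panel assay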
Cytochrome P450 2C19 = Cytochrome P450 2C19 (Homo sapiens, UniProt P33261); experiment: Cytochrome panel assay with activity outcomes. Panel member name: p450-cyp2c19 Compounds with AC50 equal or less than 10 uM are considered active; type: functional
H9c2 = experiment: cells; type: functional, cell-based; settings: Rattus norvegicus, H9c2, Myocardium;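 further: confirmatory concentration-response retest of ultra-high-throughput screening hits for modulation of myocardial damage; cell death induced by hydrogen peroxide oxidative stress; compound pretreatment for 60 min then peroxide exposure for 2 h; potency is for protecting the cells against peroxide damage rather than for killing them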
HEK293 [16] = experiment: inhibitors of LMP1-driven NF-kB reporter, dose response, cell-based, HEK293, luciferase, cherry-pick (AID 588343); type: functional; settings: Homo sapiens
[17] = biological target: Lysine-specific demethylase 4A (Homo sapiens, UniProt O75164); experiment: JMJD2A histone demethylase inhibitors, dose response, selectivity assay for GASC-1 inhibitor project, biochemical, DELFIA europium, cherry-picked samples (AID 488840)
[18] = biological target: Heat shock protein HSP 90-alpha (Homo sapiens, UniProt P07900); type: functional, organism-based
[19] = biological target: Nuclear receptor subfamily 0 group B member 1 (Homo sapiens, UniProt P51843); experiment: Luminescence-based cell-based high throughput dose response assay for inhibitors of the orphan nuclear receptor subfamily 0, group B, member 1 (DAX1; NR0B1). [Related pubchem assays (depositor defined):AID504766, AID504790]; type: functional
HEK293 [20] = experiment: cells; type: functional, cell-based; settings: Homo sapiens
[21] = biological target: G-protein coupled receptor 35 (Homo sapiens, UniProt Q9HC97); experiment: SAR Analysis for the identification of Selective Antagonists of ERK1/2 Activity in GPR35-Overexpressing U2OS Cells. [Related pubchem assays: 2079, 2058 ]; type: functional, cell-based
[22] = biological target: G-protein coupled receptor 55 (Homo sapiens, UniProt Q9Y2T6); experiment: GPR55 antagonists, SAR follow-up, counter-screen for GPR35 antagonist project, imaging, image-based (AID 2397); type: functional
[23] = biological target: T2, Dual specificity protein phosphatase 6 (Rattus norvegicus, UniProt Q64346)
T2 sequence (Q64346 whole entry): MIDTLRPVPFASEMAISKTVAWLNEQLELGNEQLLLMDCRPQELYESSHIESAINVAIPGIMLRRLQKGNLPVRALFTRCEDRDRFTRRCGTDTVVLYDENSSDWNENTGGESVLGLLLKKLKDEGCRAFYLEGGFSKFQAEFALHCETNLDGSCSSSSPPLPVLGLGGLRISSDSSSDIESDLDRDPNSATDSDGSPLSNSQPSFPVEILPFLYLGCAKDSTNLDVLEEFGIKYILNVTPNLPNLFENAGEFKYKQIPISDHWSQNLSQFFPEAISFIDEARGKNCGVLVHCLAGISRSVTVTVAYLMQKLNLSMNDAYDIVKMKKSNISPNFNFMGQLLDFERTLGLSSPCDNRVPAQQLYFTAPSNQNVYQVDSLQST

[24] = biological target: T2, Dual specificity protein phosphatase 6; type: functional
[25] = biological target: Tyrosine-protein phosphatase non-receptor type 7 (Homo sapiens, UniProt P35236); type: functional
[26] = biological target: Glyceraldehyde-3-phosphate dehydrogenase (Homo sapiens, UniProt P04406)
[27] = Luminescence Cell-Based Dose Retest to Confirm Inhibitors of Cancer Stem Cells. [Related pubchem assays (depositor defined):AID2717, AID2721]; type: functional; settings: Homo sapiens
Cytochrome P450 2C9 = Cytochrome P450 2C9 (Homo sapiens, UniProt P11712)
[28] = cytotoxicity in HMLE control line with eGFP shRNA, dose response, counter-screen for HMLE_sh_ECad selective toxicity project, cell-based, HMLE_sh_eGFP, luminescence (AID 463074); type: functional, Homo sapiens;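 further: HMLE human mammary epithelial cells expressing control shRNA against eGFP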

Chain of Cytochrome P450 2C19 (P33261 whole entry): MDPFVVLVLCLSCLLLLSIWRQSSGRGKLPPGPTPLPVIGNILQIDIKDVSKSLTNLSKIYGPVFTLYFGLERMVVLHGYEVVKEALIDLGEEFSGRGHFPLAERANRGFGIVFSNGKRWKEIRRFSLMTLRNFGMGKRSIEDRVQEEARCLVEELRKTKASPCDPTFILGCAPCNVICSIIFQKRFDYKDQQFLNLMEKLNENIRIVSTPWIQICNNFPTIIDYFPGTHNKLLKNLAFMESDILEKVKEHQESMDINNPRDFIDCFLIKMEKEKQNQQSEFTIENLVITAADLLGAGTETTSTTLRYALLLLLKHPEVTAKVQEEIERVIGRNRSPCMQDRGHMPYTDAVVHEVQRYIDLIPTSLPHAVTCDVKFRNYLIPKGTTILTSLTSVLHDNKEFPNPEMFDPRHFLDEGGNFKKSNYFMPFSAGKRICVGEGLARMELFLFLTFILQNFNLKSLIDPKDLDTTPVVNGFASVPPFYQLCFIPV
Chain of Cytochrome P450 2D6 (P10635 whole entry): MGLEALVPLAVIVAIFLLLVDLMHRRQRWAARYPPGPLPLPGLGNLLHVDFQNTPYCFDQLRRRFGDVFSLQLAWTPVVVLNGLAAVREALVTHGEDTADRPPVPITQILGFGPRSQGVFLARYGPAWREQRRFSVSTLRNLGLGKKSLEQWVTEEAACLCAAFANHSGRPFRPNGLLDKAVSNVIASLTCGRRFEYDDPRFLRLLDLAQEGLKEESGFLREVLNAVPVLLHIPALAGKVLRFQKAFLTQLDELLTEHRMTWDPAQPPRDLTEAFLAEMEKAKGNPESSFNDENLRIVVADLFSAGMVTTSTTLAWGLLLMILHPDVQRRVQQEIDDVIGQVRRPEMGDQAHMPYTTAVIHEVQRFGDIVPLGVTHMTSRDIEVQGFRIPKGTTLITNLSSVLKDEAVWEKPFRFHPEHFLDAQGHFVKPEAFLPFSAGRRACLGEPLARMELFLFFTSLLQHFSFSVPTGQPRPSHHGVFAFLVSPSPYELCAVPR
Chain of Glyceraldehyde-3-phosphate dehydrogenase (P04406 whole entry): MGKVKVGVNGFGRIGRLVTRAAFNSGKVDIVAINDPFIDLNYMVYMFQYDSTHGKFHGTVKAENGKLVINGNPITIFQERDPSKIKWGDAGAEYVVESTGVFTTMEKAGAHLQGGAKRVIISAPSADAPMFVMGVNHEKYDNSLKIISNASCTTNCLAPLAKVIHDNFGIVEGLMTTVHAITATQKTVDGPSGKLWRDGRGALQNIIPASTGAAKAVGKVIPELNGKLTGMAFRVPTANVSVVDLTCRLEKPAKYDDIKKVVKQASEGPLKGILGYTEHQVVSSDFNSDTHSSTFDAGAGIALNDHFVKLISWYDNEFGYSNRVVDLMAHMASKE
Chain of Tyrosine-protein phosphatase non-receptor type 7 (P35236 whole entry): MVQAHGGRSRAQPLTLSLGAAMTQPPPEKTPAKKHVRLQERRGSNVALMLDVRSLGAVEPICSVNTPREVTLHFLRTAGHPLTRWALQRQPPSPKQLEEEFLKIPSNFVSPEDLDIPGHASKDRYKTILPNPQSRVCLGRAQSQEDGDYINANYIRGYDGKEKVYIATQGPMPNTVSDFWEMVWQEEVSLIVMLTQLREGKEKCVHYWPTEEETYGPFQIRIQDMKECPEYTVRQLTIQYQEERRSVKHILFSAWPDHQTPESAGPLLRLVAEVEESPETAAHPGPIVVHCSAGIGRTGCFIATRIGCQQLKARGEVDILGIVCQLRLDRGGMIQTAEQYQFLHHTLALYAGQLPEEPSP
Chain of G-protein coupled receptor 55 (Q9Y2T6 whole entry): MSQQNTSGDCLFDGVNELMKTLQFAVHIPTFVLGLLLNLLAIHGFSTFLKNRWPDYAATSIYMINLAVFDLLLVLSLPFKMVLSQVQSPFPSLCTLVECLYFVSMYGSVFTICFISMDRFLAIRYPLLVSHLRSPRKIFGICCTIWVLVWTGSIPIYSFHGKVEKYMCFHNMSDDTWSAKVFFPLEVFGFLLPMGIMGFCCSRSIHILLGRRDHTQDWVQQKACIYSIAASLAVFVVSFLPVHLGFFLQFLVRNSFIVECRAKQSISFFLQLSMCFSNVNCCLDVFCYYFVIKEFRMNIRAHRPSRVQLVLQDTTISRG
Chain of Lysine-specific demethylase 4A (O75164 whole entry): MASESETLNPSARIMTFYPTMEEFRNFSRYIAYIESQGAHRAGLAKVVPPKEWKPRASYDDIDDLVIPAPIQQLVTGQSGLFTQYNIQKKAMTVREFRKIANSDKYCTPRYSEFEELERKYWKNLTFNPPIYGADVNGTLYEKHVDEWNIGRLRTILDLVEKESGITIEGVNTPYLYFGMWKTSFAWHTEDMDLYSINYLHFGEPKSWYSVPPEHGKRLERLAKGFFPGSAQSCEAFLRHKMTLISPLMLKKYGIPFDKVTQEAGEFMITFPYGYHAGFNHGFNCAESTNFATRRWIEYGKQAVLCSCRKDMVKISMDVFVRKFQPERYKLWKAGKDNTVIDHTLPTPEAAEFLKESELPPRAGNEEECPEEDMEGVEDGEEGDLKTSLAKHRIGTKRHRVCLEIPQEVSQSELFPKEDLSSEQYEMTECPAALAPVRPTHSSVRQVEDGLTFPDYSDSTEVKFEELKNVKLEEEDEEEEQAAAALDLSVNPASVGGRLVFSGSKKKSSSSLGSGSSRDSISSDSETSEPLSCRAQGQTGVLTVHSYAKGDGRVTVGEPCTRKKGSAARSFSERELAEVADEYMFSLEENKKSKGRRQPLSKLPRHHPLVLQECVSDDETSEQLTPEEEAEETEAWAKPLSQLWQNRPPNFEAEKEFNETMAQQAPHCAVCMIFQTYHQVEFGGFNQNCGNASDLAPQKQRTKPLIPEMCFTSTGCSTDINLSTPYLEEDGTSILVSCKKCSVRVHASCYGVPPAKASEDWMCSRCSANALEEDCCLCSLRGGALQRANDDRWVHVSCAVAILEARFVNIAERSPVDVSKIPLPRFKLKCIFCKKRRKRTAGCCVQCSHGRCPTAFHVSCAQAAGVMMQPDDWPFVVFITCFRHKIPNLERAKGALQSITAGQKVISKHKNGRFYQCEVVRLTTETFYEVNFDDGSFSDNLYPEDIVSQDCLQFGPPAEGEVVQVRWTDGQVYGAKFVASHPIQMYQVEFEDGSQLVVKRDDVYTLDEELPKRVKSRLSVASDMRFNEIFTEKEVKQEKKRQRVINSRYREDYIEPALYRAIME
Chain of G-protein coupled receptor 35 (Q9HC97 whole entry): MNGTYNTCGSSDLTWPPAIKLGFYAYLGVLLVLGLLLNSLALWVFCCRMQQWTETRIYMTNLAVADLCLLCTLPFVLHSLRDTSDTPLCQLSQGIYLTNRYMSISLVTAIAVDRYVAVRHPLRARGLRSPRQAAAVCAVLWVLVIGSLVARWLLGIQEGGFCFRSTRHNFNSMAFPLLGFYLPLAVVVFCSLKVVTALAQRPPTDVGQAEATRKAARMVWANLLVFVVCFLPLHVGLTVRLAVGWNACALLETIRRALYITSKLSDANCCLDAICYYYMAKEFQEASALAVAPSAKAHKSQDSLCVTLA
Chain of Cytochrome P450 2C9 (P11712 whole entry): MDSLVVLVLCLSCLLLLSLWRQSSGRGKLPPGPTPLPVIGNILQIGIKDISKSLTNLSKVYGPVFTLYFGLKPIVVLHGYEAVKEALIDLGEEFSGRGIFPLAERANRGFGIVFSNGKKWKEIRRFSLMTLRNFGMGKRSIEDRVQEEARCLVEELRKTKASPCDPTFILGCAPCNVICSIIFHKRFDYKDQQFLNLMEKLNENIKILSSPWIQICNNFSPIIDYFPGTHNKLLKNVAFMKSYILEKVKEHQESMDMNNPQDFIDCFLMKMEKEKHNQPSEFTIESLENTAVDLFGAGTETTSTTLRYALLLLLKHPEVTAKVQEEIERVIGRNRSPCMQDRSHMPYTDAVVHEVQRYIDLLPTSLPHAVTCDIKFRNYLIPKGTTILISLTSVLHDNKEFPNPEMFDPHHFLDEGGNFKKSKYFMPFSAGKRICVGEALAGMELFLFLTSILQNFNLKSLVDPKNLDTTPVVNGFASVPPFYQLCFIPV
Chain of Luciferin 4-monooxygenase (P08659 whole entry): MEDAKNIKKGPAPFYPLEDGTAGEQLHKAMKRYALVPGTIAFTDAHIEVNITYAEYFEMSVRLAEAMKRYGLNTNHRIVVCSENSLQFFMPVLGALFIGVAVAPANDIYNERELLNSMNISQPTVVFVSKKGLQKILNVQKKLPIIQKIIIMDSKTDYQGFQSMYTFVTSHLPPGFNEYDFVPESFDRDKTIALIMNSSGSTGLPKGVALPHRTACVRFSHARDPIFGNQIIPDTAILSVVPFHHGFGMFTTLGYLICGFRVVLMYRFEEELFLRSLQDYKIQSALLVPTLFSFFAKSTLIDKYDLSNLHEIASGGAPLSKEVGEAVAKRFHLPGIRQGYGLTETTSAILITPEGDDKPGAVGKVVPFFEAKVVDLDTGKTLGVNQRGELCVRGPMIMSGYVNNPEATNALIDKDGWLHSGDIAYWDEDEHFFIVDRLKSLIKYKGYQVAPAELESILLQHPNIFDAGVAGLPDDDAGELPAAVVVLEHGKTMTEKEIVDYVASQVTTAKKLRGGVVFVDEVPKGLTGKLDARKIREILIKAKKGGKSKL
Chain of Nuclear receptor subfamily 0 group B member 1 (P51843 whole entry): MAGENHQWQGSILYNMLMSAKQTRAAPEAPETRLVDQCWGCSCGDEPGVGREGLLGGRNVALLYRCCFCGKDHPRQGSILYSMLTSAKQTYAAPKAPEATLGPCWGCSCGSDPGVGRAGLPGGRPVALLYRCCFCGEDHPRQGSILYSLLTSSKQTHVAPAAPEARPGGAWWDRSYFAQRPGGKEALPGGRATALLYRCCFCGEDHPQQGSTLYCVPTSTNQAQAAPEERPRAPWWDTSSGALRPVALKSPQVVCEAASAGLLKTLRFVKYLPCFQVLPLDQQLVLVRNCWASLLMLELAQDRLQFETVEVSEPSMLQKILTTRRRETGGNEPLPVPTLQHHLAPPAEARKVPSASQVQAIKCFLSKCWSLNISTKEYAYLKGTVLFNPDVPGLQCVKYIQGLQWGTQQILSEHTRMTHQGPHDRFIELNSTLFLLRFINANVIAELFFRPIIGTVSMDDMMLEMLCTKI

- AC50 [17]: > 60 µM (inactive)
Structure (SMILES): CN(C(=O)c1ccc(NC(=O)Cc2ccc(NC(=O)C3CCN(C(=O)C4CCC4)CC3)cc2)cc1)C1CC1

- AC50 [18]: 1.8 µM (active)
Structure (SMILES): N/C(Cc1ccc(Cl)cc1)=N\OC(=O)c1cccc2ccccc12

- IC50 [21]: 4.58 µM (active)
- IC50 [22]: 12.3 µM (inactive)
Structure (SMILES): O=C(Nc1ccc2nc(SCc3ccccc3)sc2c1)c1ccccc1C(=O)N1CCOCC1

- IC50 [23]: > 100 µM (inactive)
- IC50 [24]: > 100 µM (inactive)
- IC50 [25]: 88 µM (active)
- IC50 [26]: 99.7 µM (active)
Structure (SMILES): CCC(CC)c1nnc(NC(=O)Cc2cccs2)s1

The remaining lines, values behind:

Structure (SMILES): CCOc1ccc(-c2ccc(SC)nn2)cc1
- EC50 (BJ [1]): 9.15 µM (active)
- AC50 [2]: 26.1 µM (active)
- AC50 [3]: 5.17 µM (active)
- AC50 [4]: 2.36 µM (active)
- EC50 [5]: 9.86 µM (active)
- EC50 [6]: 1.74 µM (active)
- EC50 (BJ [7]): 11.5 µM (active)
- AC50 [8]: 76.7 µM (active)
- AC50 [9]: 20.8 µM (active)
- AC50 [10]: 14 µM (active)
- EC50 (BJ [11]): > 150 µM (not active)
- EC50 [12]: 2.3 µM (active)
- AC50 [13]: 3.05 µM (active)
- AC50 [14]: 18.6 µM (active)
- AC50 [15]: 15 µM (active)

Structure (SMILES): CC1=C(C(=O)O)N2C(=O)[C@@H](NC(=O)[C@@H](N)C3=CCC=CC3)[C@@H]2SC1
- AC50 (Cytochrome P450 2D6): inconclusive
- AC50 (Cytochrome P450 2C19): inconclusive

Structure (SMILES): CCn1nc(C(=O)Nc2nc(-c3ccccn3)cs2)c2ccccc2c1=O
- IC50 (H9c2): 16.2 µM (active)
- AC50 (HEK293 [16]): 11.4 µM (active)

Structure (SMILES): Cc1ccc2nc3c(cc2c1)c(NC(=O)c1ccco1)nn3CC(C)C
- IC50 [19]: > 67.5 µM (inactive)
- IC50 (HEK293 [20]): > 67.5 µM (inactive)

Structure (SMILES): Cc1nn(-c2ccc(F)cc2)c(Cl)c1/C=C(\CCC(=O)O)c1nc2ccccc2s1
- AC50 [27]: 18.7 µM (active)
- AC50 (Cytochrome P450 2C9): 39.8 µM (inconclusive)
- AC50 [28]: 23.5 µM (active)
